Measurements reported in article PMC7355663, “Microscale Thermophoresis as a Screening Tool to Predict Melanin Binding of Drugs” (Pharmaceutics, 2020).
Read-outs that look alike come from different tables or passages of the source.

What was measured:
[1] = average of the two high binders; 34 compounds in cassette; melanin 3.6 mg/mL; data of Pelkonen et al. [6]
Protocol: (§1) Unbound ligand fractions in vivo were calculated considering melanin binding as the only driver of nonspecific tissue binding.

[2] = design: method as in PMID 26741026, PMID 29859954; conditions: from previous studies, ref [11],[16], cited from earlier work; for Kd: read-out: Kd ± SE, traditional method (Sips isotherm); for n ± SE, traditional method (Sips isotherm): heterogeneity index; for Bmax ± SE, traditional method (Sips isotherm): maximum binding capacity
[3] = Label-free microscale thermophoresis (MST) melanin binding assay; conditions: for melanin binder category in Figure 1a: comparison of MST with traditional assay
Protocol: Synthetic melanin was purchased from Sigma Aldrich (#M8631-100 mg). Melanin nanoparticles were prepared as described earlier by Fan et al., and low-binding pipette tips (Maxymum RecoveryTM pipet tips, Corning Incorporated, Salt Lake City, UT, USA) and tubes (No stick microtubes, Alpha Laboratories, Hampshire, UK) were used with both melanin and melanin nanoparticles. Briefly, melanin was dissolved into 1 N NaOH with a concentration of 2 mg/mL and stirred by vortexing. The solution was neutralized by adding an equal volume of 1 N HCl. […] After the final centrifugation, the resulting nanoparticles were suspended into a small volume of sterile water and freeze-dried for 48–72 h (ModulyoD-230, Thermo Savant, Holbrook, NY, USA), and stored at −20 °C until the binding assays.
Melanin binding of each of the 13 model compounds was determined (for the concentrations in the assay, see Table 1). The dilution series of drugs were prepared onto a PCR plate (4titude PCR Plate, Skirted, #4ti-0740, Brooks Life Sciences, Chelmsford, MA, USA) in phosphate buffered saline (PBS, pH 7.4). […] The compound dilutions (10 µL) were transferred into 0.2 mL PCR tube strips (#TBS0201, Bio-Rad Laboratories, Inc., Hercules, CA, USA), and an equal volume of 1 mg/mL melanin nanoparticle dilution was added, resulting in a final melanin concentration of 0.5 mg/mL. At least three biological replicates (individually incubated dilution series) were prepared for each compound (n = 3–5). A reference sample containing only melanin nanoparticles and PBS (pH 7.4) was included in each assay to determine the unbound state in the thermophoresis experiment. Melanin nanoparticles were incubated with the compounds at room temperature for at least 2 h.
After >2 h incubation, the melanin–ligand complexes were mixed gently with a pipette to ensure melanin solution homogeneity and then transferred into capillaries (Monolith NT.115 Premium capillaries, #MOK025, NanoTemper Technologies GmbH, München, Germany). The samples were analyzed with a Monolith NT.115 pico device using MO.Control Software (both from NanoTemper Technologies GmbH, München, Germany) using nano-blue excitation, LED light adjusted to 60% excitation power, and infrared laser (MST power) set to high. […] The equation is based on the Langmuir binding isotherm. […] Equation (1) is a follows:(1) f(c)=Unbound+(Bound−Unbound)×c+c(target)+Kd−(c+c(target)+Kd)^2−4c×c(target)/2c(target) where f(c) is the fraction bound at a given ligand concentration c. Unbound is either the normalized fluorescence signal (Fnorm; MST mode) or raw fluorescence counts (initial fluorescence mode) of the target alone. Bound is either the normalized fluorescence signal or raw fluorescence counts (initial fluorescence mode) of the melanin–ligand complex. Kd is the dissociation constant or binding affinity, and c (target) is the final concentration of the target in the assay.
The normalized fluorescence is the ratio of relative fluorescence of the selected region after heating (hot region) and relative initial fluorescence before the heating (cold region, i.e., relative fluorescence values before the infrared laser was switched on). The MST traces displaying the changes in the relative fluorescence over time (heating) with the selected hot and cold regions are presented in the Supplementary Materials. In the case of ligand-induced changes in the initial raw fluorescence counts, the raw fluorescence counts prior to the heating were used (initial fluorescence mode). If the ligand-induced fluorescence changes were not observed, the normalized fluorescence signals (MST mode) were used to determine the Kd (for additional information, see the Supplementary Materials). […] Affinity Analysis Software.
Kd determination strategies. The Kd values were tested in both initial fluorescence and the above
described MST modes within the MO Affinity Analysis Software (Fig. S1, Table S1) and the Kd values

melanin [4] = test: Prediction of unbound ligand fraction in vivo (human RPE-choroid); conditions: human
Protocol: as §1
(§2) Linear regression was used to describe the relationship between the Kd values obtained with the MST and the predicted unbound ligand fractions in human RPE-choroid obtained with calculations described above.
(§3) The Kd values obtained with MST consider only one class of binding site, whereas the Sips isotherm (the traditional binding assay) depicts different binding energies and binding sites. […] This approach is relevant to evaluate the melanin binding.

melanin [5] = test: in vitro; conditions: for fraction unbound at 20 h, 1 µM: pig, pH 7.4
Protocol: (§4) The traditional melanin binding assay was conducted with melanin from the porcine RPE-choroid. We used previously published methods for melanin isolation and drug binding. Fresh melanin suspension and test compound solutions were prepared before each experiment. The melanin suspension (in PBS, pH 7.4) was sonicated in a bath sonicator for 30 min (Elmasonic S 40 H, Elma Schmidbauer GmbH, Singen, Germany) before the experiment. The incubation with test compounds took place at 37 °C on a shaker (220 rpm), and the melanin concentration in the assay was 1 mg/mL (0.15 mg/well). In the control samples, PBS buffer (pH 7.4) was used instead of the melanin suspension. Three individual replicates were made for each experiment. After 20 h incubation, the samples were centrifuged at 20,000× g for 20 min, and supernatant containing the unbound ligand was collected for analysis.
(§5) Samples having an estimated concentration of 0.5 µM or higher were analyzed with ultra-high pressure liquid chromatography (UPLC) (Acquity UPLC, Waters, Milford, MA, USA) with UV detection (Photodiode Array Detector, Waters, MA, USA). The separation was carried out on a Luna Omega Polar C18 (1.6 μm, 2.1 × 50 mm^2) column (Phenomenex) at 30 °C. Injection volume was 4 µL. Gradient mode was used for all the compounds with an acetonitrile/15 mM phosphate buffer (pH 2) mobile phase. Gradient duration was 3−5 min depending on the sample (levofloxacin, terazosin, and papaverine).
(§6) All internal standards, namely levofloxacin D8, terazosin D8, and papaverine D3, were purchased from Toronto Research Chemicals (Toronto, ON, Canada). […] Injection volumes were 0.2 μL for terazosin, 0.3 µL for levofloxacin, and 0.15 µl for papaverine with a flow through needle injection system. The mobile phase consisted of 0.1% formic acid (Merck, Darmstadt, Germany) in ultrapure water (A) and 100% LC–MS grade acetonitrile (Honeywell, Seelze, Germany) (B). […] The gradient for levofloxacin was the same as for papaverine, but the total run time was 6 min. The flow rate was 0.3 mL/min for all the compounds.
(§7) Mass spectrometric measurements were carried out using a Waters Xevo TQ-S triple quadruple mass spectrometer coupled with an electrospray ionization (ESI) on a positive mode for all three compounds. Optimized MS-parameters were as follows: capillary 1.5 kV (terazosin and papaverine), 3.5 kV (levofloxacin), cone voltage 80 V (terazosin) and 8 V (terazosin D8), 22 V (papaverine and papaverine D3), 28 V (levofloxacin and levofloxacin D8), source temperature 150 °C, and desolvation temperature 500 °C (terazosin) or 450 °C (papaverine and levofloxacin). Nitrogen (AGA, Helsinki, Finland) was used as the desolvation gas (1000 L·h^−1 terazosin, 800 L·h^−1 papaverine and levofloxacin) and the cone gas (150 L·h^−1), argon (AGA, Helsinki, Finland) as the collision gas. Multiple reaction monitoring (MRM) mode was employed for quantification. […] The resulting data were analyzed with Waters MassLynx V4.1 software. To consider the effect of melanin on the analyses, separate samples containing only melanin in PBS (with no test compound) were also studied.
(§8) The binding parameters were determined with Sips isotherm (Equation (2)) as described by Manzanares et al.. B = (Bmax × [L]^n)/(Kd^n + [L]^n)(2) where B is the amount of bound drug (nmol·mg^−^1); Bmax is the maximum binding capacity (nmol·mg^−^1); [L] is the free drug concentration (µM); n is the heterogeneity index (assuming heterogeneity of the surface of the melanin particles); and Kd represents the dissociation constant (µM).

[6] = Prediction of unbound ligand fraction in vivo (human RPE-choroid); conditions: class by predicted fraction unbound in vivo, human RPE-choroid
Protocol: as §1, §2, §3

[7] = Traditional melanin binding assay (equilibrium binding, Sips isotherm); conditions: for Target Capacity ± SE, traditional method (Sips isotherm): Bmax multiplied with 0.5 mg/mL melanin concentration of the MST assay; for n ± SE, traditional method (Sips isotherm): heterogeneity index; for n ± SE, traditional method (Sips isotherm) / Bmax ± SE, traditional method (Sips isotherm) / Kd: 1 mg/mL melanin, PBS pH 7.4, 37 °C; for Bmax ± SE, traditional method (Sips isotherm): maximum binding capacity; for Kd: read-out: Kd ± SE, traditional method (Sips isotherm)
Protocol: as §4, §5, §6, §7, §8

[8] = monkeys and humans; ref [10]; cited from earlier work
[9] = human RPE-choroid (predicted), 34.8 mg/mL melanin
[10] = 0.5 mg/mL (12.5 µM) melanin nanoparticles, PBS pH 7.4, room temperature, 68% confidence, initial fluorescence mode for compounds marked *, otherwise MST mode, read-out: Kd ± Kd Confidence (MST)
[11] = Table S2, normalized fluorescence, 60% excitation power, read-out: Kd, MST mode (Fnorm)
[12] = Table S2, raw fluorescence counts before heating, 60% excitation power, read-out: Kd, initial fluorescence mode (converted)

| Structure (SMILES) | Melanin binding class based on traditional assay [6] | fraction unbound at 1 µM (melanin [4]; [9]) | Target Capacity ± SE, traditional method (Sips isotherm) [7] [µM] | fraction unbound at 20 h, 1 µM (melanin [5]) | n ± SE, traditional method (Sips isotherm) [2] | Bmax ± SE, traditional method (Sips isotherm) [2] [nmol/mg] | Kd [3, 10] [µM] | Kd [3, 11] [µM] | Kd [3, 12] [µM] | other results |
| --- | --- | --- | --- | --- | --- | --- | --- | --- | --- | --- |
| Clc1ccc2nsnc2c1NC1=NCCN1 [tizanidine] | – | – | – | – | – | – | – | – | – | unbound fraction in cassette assay compared to single compound incubation [1]: 2.1 fold |
| O=C(O)Cc1ccccc1Nc1c(Cl)cccc1Cl [Diclofenac] | – | – | – | – | – | – | – | – | – | Kd ± SE, traditional method (Sips isotherm) [2]: no binding ^1; Kd ± Kd Confidence (MST) ([3]; 0.5 mg/mL (12.5 µM) melanin nanoparticles, PBS pH 7.4, room temperature, 68% confidence, initial fluorescence mode for compounds marked *, otherwise MST mode): Kd could not be determined; Melanin binding class based on Kd from MST ([3]; class by Kd (MST)): low; melanin binder category in Figure 1a [3]: Weak melanin binders |
| CC1(C)S[C@@H]2[C@H](NC(=O)Cc3ccccc3)C(=O)N2[C@H]1C(=O)O [Penicillin G] | – | – | – | – | – | – | – | – | – | fraction unbound (melanin [4]; [9]): 0.0029; fraction unbound (melanin [5]): 0.092 |
| CCN(CC)CCCC(C)Nc1ccnc2cc(Cl)ccc12 (centres unmarked) [Chloroquine] | extreme | 1.2e-05 | 190 ± 20 | 0.0041 | 0.605 ± 0.012 | 380 ± 40 | 0.8 | 0.8 | – | Kd [2]: 76 ± 23 µM |
| CC(C)(C)NC[C@H](O)COc1nsnc1N1CCOCC1 [Timolol] | intermediate | 0.057 | 19.5 ± 3 | 0.71 | 0.95 ± 0.03 | 39 ± 6 | 260 ± 128 | 260 | – | Kd [2]: 120 ± 30 µM |
| COc1ccc(Cc2nccc3cc(OC)c(OC)cc23)cc1OC [Papaverine] | high | – | 33 ± 4 | 0.15 | – | – | 28 ± 23 | 93 | 28 | fraction unbound at 1 µM (melanin [4]): 0.0013; n ± SE, traditional method (Sips isotherm) ([7]; 20 h): 0.715 ± 0.015; Bmax ± SE, traditional method (Sips isotherm) ([7]; 20 h): 66 ± 8 nmol/mg; Kd ([7]; 20 h): 66 ± 18 µM |
| CC(C)NCC(O)COc1ccc(CCOCC2CC2)cc1 (centres unmarked) [betaxolol] | – | – | – | – | – | – | – | – | – | concentration in pigmented eye tissues compared to neighboring non-pigmented tissues [8]: 20–150 fold |
| CN(Cc1cnc2nc(N)nc(N)c2n1)c1ccc(C(=O)N[C@@H](CCC(=O)O)C(=O)O)cc1 [Methotrexate] | low | – | – | – | – | – | 3500 | > 10000 | 3500 | fraction unbound (melanin [4]; [9]): 0.54; fraction unbound (melanin [5]): 0.98; Kd ± SE, traditional method (Sips isotherm) [2]: no binding ^1; melanin binder category in Figure 1a [3]: Weak melanin binders |
| C=C[C@H]1C[N@@]2CC[C@H]1C[C@@H]2[C@@H](O)c1ccnc2ccc(OC)cc12 [Quinidine] | – | – | – | – | – | – | – | – | – | fraction unbound (melanin [5]): 0.16 |
| COc1cc2nc(N3CCN(C(=O)C4CCCO4)CC3)nc(N)c2cc1OC (centres unmarked) [Terazosin] | extreme | 0.00012 | 56 ± 6.5 | 0.029 | – | – | 29 ± 28 | 96 | 29 | n ± SE, traditional method (Sips isotherm) ([7]; 20 h): 0.64 ± 0.018; Bmax ± SE, traditional method (Sips isotherm) ([7]; 20 h): 112 ± 13 nmol/mg; Kd ([7]; 20 h): 46 ± 16 µM |
| CC(C)(C)NCC(O)COc1cccc2c1CC(O)C(O)C2 (centres unmarked) [Nadolol] | intermediate | 0.08 | 34 ± 12 | – | 0.94 ± 0.05 | 68 ± 24 | 200 ± 33 | 260 | 200 | Fraction Unbound in Vitro (%) (1 mg/mL Melanin) ([7]; pig, 20 h, 1 µM, pH 7.4): 78%; Kd [2]: 340 ± 200 µM |
| CC(C)NCC(O)COc1cccc2ccccc12 (centres unmarked) [Propranolol] | high | 0.009 | 88 ± 30 | 0.32 | 0.89 ± 0.05 | 176 ± 60 | – | – | – | – |
